# Literature values in patent US20160082021A1, “PHARMACEUTICAL COMPOSITION OF DOXYCYCLINE WITH REDUCED FOOD EFFECT” (SUN PHARMACEUTICAL INDUSTRIES LIMITED, priority 2014, published 2016).
# Details: oral versus intravenous doses
structure (smiles),measurement,value
C[C@H]1c2cccc(O)c2C(=O)C2=C(O)[C@]3(O)C(=O)C(C(N)=O)=C(O)[C@@H](N(C)C)[C@@H]3[C@@H](O)[C@@H]21 [doxycycline],absorption for oral administration,73-77%
